Data reported in ChEMBL document CHEMBL3885861, “Open TG-GATES”.

Species: Rattus norvegicus
Assay: Open TG-GATES - Regimen: Single
Assay type: toxicity, organism-based, Sprague-Dawley
Set-up: regimen Single, gender Male, age 6 weeks
Conditions: in vivo, po, 100 mg/kg, route gavage, dose level High; for APTT / Bas / Eos / Fbg / Hb / Ht / Lym / MCH / MCHC / MCV / Mono / Neu / PT / Plat / RBC / Ret / WBC: tissue Blood; for KIDNEY_L / KIDNEY_R / KIDNEY_TOTAL: tissue Kidney; for LIVER: tissue Liver; for A/G / ALP / ALT / AST / BUN / CRE / Ca / Cl / DBIL / GLC / IP / K / LDH / Na / PL / RALB / TBIL / TC / TG / TP / gamma-GTP: tissue Plasma

Work on `CCN(CC)N=O` [N-NITROSODIETHYLAMINE] yielded a TERMINAL_BW (3 h) of 221.2 g, an APTT (3 h) of 19.4 s and a Bas (3 h) of 0%. The Eos (3 h) was 1%, the Fbg (3 h) was 208.2 mg/dL and the Hb (3 h) was 13.2 g/dL. It also gave a Ht (3 h) of 38.5%, a Lym (3 h) of 77.2% and an MCH (3 h) of 21.5 pg. For the same compound, the MCHC (3 h) was 34.2%, the MCV (3 h) was 62.7 fL and the Mono (3 h) was 1.4%. For the same compound, the Neu (3 h) was 19.2%, the PT (3 h) was 12 s and the Plat (3 h) was 113.8 x10_4/uL. The RBC (3 h) was 613.8 x10_4/ul, the Ret (3 h) was 7.2% and the WBC (3 h) was 60.2 x10_2/uL. The KIDNEY_L (3 h) was 1 g, the KIDNEY_R (3 h) was 1 g and the KIDNEY_TOTAL (3 h) was 2 g. It also gave an LIVER (3 h) of 9 g, an A/G (3 h) of 1.7 and an ALP (3 h) of 781 IU/L. The ALT (3 h) was 39.6 IU/L, the AST (3 h) was 73.6 IU/L and the BUN (3 h) was 9.8 mg/dL. For the same compound, the CRE (3 h) was 0.4 mg/dL, the Ca (3 h) was 10.2 mg/dL and the Cl (3 h) was 102.2 meq/L. It also gave a DBIL (3 h) of 0.056 mg/dL, a GLC (3 h) of 191 mg/dL and an IP (3 h) of 8.5 mg/dL. It also gave a K (3 h) of 3.5 meq/L, an LDH (3 h) of 162 IU/L and a Na (3 h) of 140.8 meq/L. It also gave a PL (3 h) of 124.8 mg/dL, an RALB (3 h) of 3.4 g/dL and a TBIL (3 h) of 0.1 mg/dL. For the same compound, the TC (3 h) was 85 mg/dL, the TG (3 h) was 24.2 mg/dL and the TP (3 h) was 5.5 g/dL. It also gave a gamma-GTP (3 h) of 1.2 IU/L, a TERMINAL_BW (6 h) of 218 g and an APTT (6 h) of 18.8 s. For the same compound, the Bas (6 h) was 0.4%, the Eos (6 h) was 0.8% and the Fbg (6 h) was 214.6 mg/dL. The Hb (6 h) was 13.2 g/dL, the Ht (6 h) was 38.2% and the Lym (6 h) was 80.2%. For the same compound, the MCH (6 h) was 21.2 pg, the MCHC (6 h) was 34.6% and the MCV (6 h) was 61.4 fL. The Mono (6 h) was 2%, the Neu (6 h) was 16% and the PT (6 h) was 12.7 s. For the same compound, the Plat (6 h) was 142.5 x10_4/uL, the RBC (6 h) was 623 x10_4/ul and the Ret (6 h) was 6.6%. For the same compound, the WBC (6 h) was 83.6 x10_2/uL, the KIDNEY_L (6 h) was 1 g and the KIDNEY_R (6 h) was 1 g. For the same compound, the KIDNEY_TOTAL (6 h) was 2 g, the LIVER (6 h) was 9.8 g and the A/G (6 h) was 1.6. It also gave an ALP (6 h) of 784.2 IU/L, an ALT (6 h) of 38.2 IU/L and an AST (6 h) of 73.4 IU/L. The BUN (6 h) was 12 mg/dL, the CRE (6 h) was 0.4 mg/dL and the Ca (6 h) was 10.2 mg/dL. The Cl (6 h) was 103.4 meq/L, the DBIL (6 h) was 0.068 mg/dL and the GLC (6 h) was 192.8 mg/dL. It also gave an IP (6 h) of 8.3 mg/dL, a K (6 h) of 3.5 meq/L and an LDH (6 h) of 207.8 IU/L. The Na (6 h) was 140.4 meq/L, the PL (6 h) was 103.6 mg/dL and the RALB (6 h) was 3.4 g/dL. It also gave a TBIL (6 h) of 0.1 mg/dL, a TC (6 h) of 68.8 mg/dL and a TG (6 h) of 24 mg/dL. The TP (6 h) was 5.5 g/dL, the gamma-GTP (6 h) was 1.4 IU/L and the TERMINAL_BW (9 h) was 225.6 g. It also gave an APTT (9 h) of 19.6 s, a Bas (9 h) of 0.6% and an Eos (9 h) of 1%. For the same compound, the Fbg (9 h) was 226.6 mg/dL, the Hb (9 h) was 13.7 g/dL and the Ht (9 h) was 39.4%. It also gave a Lym (9 h) of 71.6%, an MCH (9 h) of 21.4 pg and an MCHC (9 h) of 34.9%. The MCV (9 h) was 61.4 fL, the Mono (9 h) was 5% and the Neu (9 h) was 20.4%. It also gave a PT (9 h) of 13.8 s, a Plat (9 h) of 122.7 x10_4/uL and an RBC (9 h) of 642 x10_4/ul. The Ret (9 h) was 6.9%, the WBC (9 h) was 78.5 x10_2/uL and the KIDNEY_L (9 h) was 1 g. The KIDNEY_R (9 h) was 1 g, the KIDNEY_TOTAL (9 h) was 2 g and the LIVER (9 h) was 9.7 g. It also gave an A/G (9 h) of 1.6, an ALP (9 h) of 795 IU/L and an ALT (9 h) of 35.6 IU/L. It also gave an AST (9 h) of 87.8 IU/L, a BUN (9 h) of 14.2 mg/dL and a CRE (9 h) of 0.4 mg/dL. The Ca (9 h) was 10.3 mg/dL, the Cl (9 h) was 103.2 meq/L and the DBIL (9 h) was 0.064 mg/dL. For the same compound, the GLC (9 h) was 194.4 mg/dL, the IP (9 h) was 8.2 mg/dL and the K (9 h) was 3.7 meq/L. For the same compound, the LDH (9 h) was 267.2 IU/L, the Na (9 h) was 141.6 meq/L and the PL (9 h) was 110.4 mg/dL. For the same compound, the RALB (9 h) was 3.4 g/dL, the TBIL (9 h) was 0.1 mg/dL and the TC (9 h) was 73.4 mg/dL. The TG (9 h) was 28.2 mg/dL, the TP (9 h) was 5.5 g/dL and the gamma-GTP (9 h) was 1.6 IU/L. For the same compound, the TERMINAL_BW (24 h) was 216.1 g, the APTT (24 h) was 19 s and the Bas (24 h) was 0.8%. The Eos (24 h) was 1.2%, the Fbg (24 h) was 225.6 mg/dL and the Hb (24 h) was 15.1 g/dL. It also gave a Ht (24 h) of 44.4%, a Lym (24 h) of 72.4% and an MCH (24 h) of 21 pg. It also gave an MCHC (24 h) of 34%, an MCV (24 h) of 61.7 fL and a Mono (24 h) of 6%. The Neu (24 h) was 17.8%, the PT (24 h) was 17 s and the Plat (24 h) was 130.3 x10_4/uL. For the same compound, the RBC (24 h) was 720.2 x10_4/ul, the Ret (24 h) was 6.5% and the WBC (24 h) was 83.1 x10_2/uL. It also gave a KIDNEY_L (24 h) of 1 g, a KIDNEY_R (24 h) of 1 g and a KIDNEY_TOTAL (24 h) of 2 g. The LIVER (24 h) was 8.2 g, the A/G (24 h) was 1.7 and the ALP (24 h) was 955.6 IU/L. For the same compound, the ALT (24 h) was 56.2 IU/L, the AST (24 h) was 160 IU/L and the BUN (24 h) was 13.4 mg/dL. It also gave a CRE (24 h) of 0.4 mg/dL, a Ca (24 h) of 10.4 mg/dL and a Cl (24 h) of 104.2 meq/L. The DBIL (24 h) was 0.1 mg/dL, the GLC (24 h) was 179.6 mg/dL and the IP (24 h) was 8.4 mg/dL. For the same compound, the K (24 h) was 4.1 meq/L, the LDH (24 h) was 348.8 IU/L and the Na (24 h) was 140.6 meq/L. For the same compound, the PL (24 h) was 112.2 mg/dL, the RALB (24 h) was 3.3 g/dL and the TBIL (24 h) was 0.2 mg/dL. For the same compound, the TC (24 h) was 65.2 mg/dL, the TG (24 h) was 25.6 mg/dL and the TP (24 h) was 5.3 g/dL. The gamma-GTP (24 h) was 1.8 IU/L.
